Literature values as cited in patent US20210227865A1, “LOW GLYCEMIC COMPOSITION AND METHODS OF MAKING AND USING THEREOF” (Seattle Gummy Company, priority 2018, published 2021).

How the values were obtained:
[1] = FIG. 3 (trehalose), FIG. 4 (isomaltulose)
[2] = for sweetness compared with sucrose (in words): relative to sucrose (table sugar)
[3] = in vivo

Row | Compound | sweetness compared with sucrose (in words) [2] | GI value [3] | further results
1 | OC[C@H]1O[C@H](O[C@H]2O[C@H](CO)[C@@H](O)[C@H](O)[C@H]2O)[C@H](O)[C@@H](O)[C@@H]1O [trehalose] | – | – | effect on blood glucose levels (in words) [1]: does not cause a spike in glucose levels
2 | O=C(CO)[C@H](O)[C@@H](O)[C@H](O)CO [Sorbose, sorbose] | equivalent to sucrose in sweetness | – | –
3 | O=C(CO)[C@H](O)[C@H](O)[C@H](O)CO [Psicose, psicose] | identical to sucrose | – | sweetness relative to sucrose ([2]; relative to sucrose): 70%
4 | O=C(CO)[C@@H](O)[C@H](O)[C@H](O)CO [fructose] | – | 19 | –
5 | O=C(CO)[C@@H](O)[C@@H](O)[C@H](O)CO [Tagatose, tagatose] | nearly as sweet as sucrose | – | –
6 | OC[C@H]1O[C@@](CO)(O[C@H]2O[C@H](CO)[C@@H](O)[C@H](O)[C@H]2O)[C@@H](O)[C@@H]1O [sucrose] | – | 63 | –
7 | OC[C@H]1O[C@H](OC[C@H]2OC(O)(CO)[C@@H](O)[C@@H]2O)[C@H](O)[C@@H](O)[C@@H]1O (stereo partly drawn) [Isomaltulose, isomaltulose] | – | about 30 | effect on blood glucose levels (in words) [1]: does not cause a spike in glucose levels
